Experimental data as given in ChEMBL document CHEMBL1201862, “PubChem BioAssay data set” (2004).
Active and inactive are the calls of the source.

How the values were obtained:
[1] = target: T1, Short transient receptor potential channel 4 (Mus musculus, UniProt Q9QUQ5); experiment: block of DAMGO-driven TRPC4 calcium entry – cell-based, HEK293 TRPC4/mu-opioid, Fluo-4 calcium, dose response (AID 434942); assay type: functional;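 further: potency of inhibitors blocking the TRPC4 calcium response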
T1 sequence (Q9QUQ5 whole entry): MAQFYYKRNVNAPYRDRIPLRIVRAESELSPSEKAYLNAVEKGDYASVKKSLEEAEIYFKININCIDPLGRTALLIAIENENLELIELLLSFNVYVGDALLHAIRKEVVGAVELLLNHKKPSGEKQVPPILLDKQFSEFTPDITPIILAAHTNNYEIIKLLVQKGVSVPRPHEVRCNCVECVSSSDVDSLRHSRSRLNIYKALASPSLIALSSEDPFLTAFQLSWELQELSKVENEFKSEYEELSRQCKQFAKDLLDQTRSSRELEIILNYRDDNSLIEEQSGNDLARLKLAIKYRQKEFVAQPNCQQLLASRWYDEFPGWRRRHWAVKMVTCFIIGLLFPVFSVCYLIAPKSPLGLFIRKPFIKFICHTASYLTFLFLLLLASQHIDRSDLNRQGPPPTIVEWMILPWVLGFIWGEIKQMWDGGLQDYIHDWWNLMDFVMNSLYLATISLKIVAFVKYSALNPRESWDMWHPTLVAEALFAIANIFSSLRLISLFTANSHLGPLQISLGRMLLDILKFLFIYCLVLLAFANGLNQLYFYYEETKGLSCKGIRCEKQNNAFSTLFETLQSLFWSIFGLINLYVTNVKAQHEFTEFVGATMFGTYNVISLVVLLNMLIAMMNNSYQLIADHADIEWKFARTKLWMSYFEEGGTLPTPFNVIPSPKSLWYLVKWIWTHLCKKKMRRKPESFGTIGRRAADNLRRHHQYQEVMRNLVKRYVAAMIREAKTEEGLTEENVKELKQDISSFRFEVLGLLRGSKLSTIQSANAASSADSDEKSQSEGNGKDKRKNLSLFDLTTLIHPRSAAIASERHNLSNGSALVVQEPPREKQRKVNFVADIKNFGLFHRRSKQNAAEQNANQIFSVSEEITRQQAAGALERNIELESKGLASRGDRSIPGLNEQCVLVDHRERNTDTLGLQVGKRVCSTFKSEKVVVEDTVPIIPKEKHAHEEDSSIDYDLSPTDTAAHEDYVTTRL

[2] = target: T2, Carboxy-terminal domain RNA polymerase II polypeptide A small phosphatase 1 (Homo sapiens, UniProt Q9GZU7); experiment: CTDSP1 inhibitors, concentration-response, biochemical, absorbance readout, ultra-high-throughput screen actives (AID 540297); assay type: functional
T2 sequence (Q9GZU7 whole entry): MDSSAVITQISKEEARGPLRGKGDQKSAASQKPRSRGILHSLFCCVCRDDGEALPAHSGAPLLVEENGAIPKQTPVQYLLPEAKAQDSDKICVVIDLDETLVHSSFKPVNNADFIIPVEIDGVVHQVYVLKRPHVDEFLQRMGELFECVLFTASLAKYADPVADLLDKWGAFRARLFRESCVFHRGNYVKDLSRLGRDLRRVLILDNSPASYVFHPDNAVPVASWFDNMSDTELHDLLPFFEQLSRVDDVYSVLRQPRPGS

[3] = target: T3, Corticotropin-releasing factor receptor 2/Corticotropin-releasing factor-binding protein (Homo sapiens, UniProt P24387+Q13324); experiment: Dose Response confirmation of uHTS hits for small molecule antagonists of the CRF-binding protein and CRF-R2 receptor complex.; assay type: functional; conditions: read-out: IC50_Mean
T3 sequence (Q13324 whole entry): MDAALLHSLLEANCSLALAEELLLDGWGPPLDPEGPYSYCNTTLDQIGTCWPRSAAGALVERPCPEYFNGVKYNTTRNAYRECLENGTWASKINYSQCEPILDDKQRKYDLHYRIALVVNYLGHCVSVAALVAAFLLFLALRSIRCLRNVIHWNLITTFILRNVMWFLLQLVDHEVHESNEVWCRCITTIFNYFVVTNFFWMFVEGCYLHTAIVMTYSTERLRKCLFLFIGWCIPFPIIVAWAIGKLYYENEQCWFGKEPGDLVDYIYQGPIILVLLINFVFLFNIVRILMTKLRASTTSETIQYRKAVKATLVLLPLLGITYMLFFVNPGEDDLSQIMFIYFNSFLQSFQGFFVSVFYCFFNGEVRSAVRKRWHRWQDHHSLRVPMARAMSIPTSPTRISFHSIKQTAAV
T3 sequence (P24387 whole entry): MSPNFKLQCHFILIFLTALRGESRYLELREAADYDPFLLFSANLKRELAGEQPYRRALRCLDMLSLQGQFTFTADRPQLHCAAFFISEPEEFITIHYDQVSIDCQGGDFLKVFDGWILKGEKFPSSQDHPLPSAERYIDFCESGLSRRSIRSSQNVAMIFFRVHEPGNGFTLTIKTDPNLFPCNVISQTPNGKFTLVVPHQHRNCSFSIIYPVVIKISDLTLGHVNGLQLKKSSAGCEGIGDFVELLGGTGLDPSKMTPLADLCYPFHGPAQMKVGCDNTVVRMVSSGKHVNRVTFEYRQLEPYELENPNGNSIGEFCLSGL

[4] = target: T3, Corticotropin-releasing factor receptor 2/Corticotropin-releasing factor-binding protein; experiment: activators of CRF receptor 2 with binding protein – uHTS hits, confirmation (AID 602473); assay type: functional; conditions: read-out: EC50_Mean
[5] = blockers of CRF-binding protein–CRF-R2 complex – cell-based, uHTS hits, 384-well, dose response (AID 651639); assay type: functional, Homo sapiens; conditions: read-out: IC50_Mean
Vero = experiment: mammalian cell viability reduction – secondary assay, cytotoxicity control for West Nile virus antiviral project, dose response (AID 1650); assay type: functional; conditions: Chlorocebus sabaeus
[6] = A cytotoxicity screen of small molecule inhibitors of the PhoP region in Salmonella typhi identified in the primary screen. [Related pubchem assays: 1850, 1864, 1985 ]; assay type: functional
cells = assay type: functional, cell-based
[7] = Trypanosoma cruzi growth suppression in host cells – NIH3T3 host cells, beta-gal luminescence, confirmation (AID 2044); assay type: functional, cell-based;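 further: intracellular parasites grown in NIH/3T3 mouse fibroblasts as host cells; luminescent beta-galactosidase reporter signal from transgenic T. cruzi replicating inside host cells; inhibitors lower the luminescence signal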
[8] = NIH3T3 cell viability loss – ATP luminescence, mouse fibroblasts, counter-screen, dose response (AID 2010); assay type: functional, cell-based; conditions: NIH3T3;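 further: cells exposed to compound for about 90 hours before reading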
[9] = target: T4, Mannose-6-phosphate isomerase (Homo sapiens, UniProt P34949); experiment: MPI inhibition at elevated mannose 6-phosphate – biochemical, fluorescence intensity, high mannose 6-phosphate, primary screen (AID 1220)
T4 sequence (P34949 whole entry): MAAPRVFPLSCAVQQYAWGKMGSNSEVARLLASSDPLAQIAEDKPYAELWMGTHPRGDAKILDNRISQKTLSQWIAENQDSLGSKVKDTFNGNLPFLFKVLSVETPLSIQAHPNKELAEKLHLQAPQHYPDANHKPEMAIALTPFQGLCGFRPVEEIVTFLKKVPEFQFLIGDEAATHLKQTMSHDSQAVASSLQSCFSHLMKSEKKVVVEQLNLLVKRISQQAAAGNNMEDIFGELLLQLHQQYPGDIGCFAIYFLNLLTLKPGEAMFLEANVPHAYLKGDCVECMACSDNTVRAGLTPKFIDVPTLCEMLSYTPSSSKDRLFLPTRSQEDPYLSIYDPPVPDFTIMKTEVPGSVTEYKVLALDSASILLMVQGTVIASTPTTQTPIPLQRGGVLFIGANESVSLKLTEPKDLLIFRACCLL

[10] = target: DNA dC->dU-editing enzyme APOBEC-3G (Homo sapiens, UniProt Q9HC16); experiment: Dose Response confirmation of small molecule APOBEC3G DNA Deaminase Inhibitors via a fluorescence-based single-stranded DNA deaminase assay. [Related pubchem assays (depositor defined):AID493012, AID493028]; assay type: functional
Chain of DNA dC->dU-editing enzyme APOBEC-3G (Q9HC16 whole entry): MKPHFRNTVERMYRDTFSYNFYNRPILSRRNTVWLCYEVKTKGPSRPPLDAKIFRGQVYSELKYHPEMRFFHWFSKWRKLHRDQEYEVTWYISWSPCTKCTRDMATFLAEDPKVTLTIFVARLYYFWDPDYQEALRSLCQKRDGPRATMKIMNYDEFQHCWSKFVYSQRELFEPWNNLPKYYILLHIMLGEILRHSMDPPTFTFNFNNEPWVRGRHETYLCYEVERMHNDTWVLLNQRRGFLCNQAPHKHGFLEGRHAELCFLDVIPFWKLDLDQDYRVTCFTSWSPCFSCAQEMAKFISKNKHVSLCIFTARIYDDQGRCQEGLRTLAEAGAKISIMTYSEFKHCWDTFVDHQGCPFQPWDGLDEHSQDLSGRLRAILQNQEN

Fatty acid synthase [11] = target: T5, Fatty acid synthase (Homo sapiens, UniProt P49327); experiment: inhibition of human FAS-TE enzyme activity – biochemical, endpoint fluorescence intensity, uHTS hits, dose response (AID 624327); assay type: functional;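 further: fluorescence from hydrolysis of an O-methyl fluorescein acyl ester substrate by the enzyme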
T5 sequence (P49327 whole entry): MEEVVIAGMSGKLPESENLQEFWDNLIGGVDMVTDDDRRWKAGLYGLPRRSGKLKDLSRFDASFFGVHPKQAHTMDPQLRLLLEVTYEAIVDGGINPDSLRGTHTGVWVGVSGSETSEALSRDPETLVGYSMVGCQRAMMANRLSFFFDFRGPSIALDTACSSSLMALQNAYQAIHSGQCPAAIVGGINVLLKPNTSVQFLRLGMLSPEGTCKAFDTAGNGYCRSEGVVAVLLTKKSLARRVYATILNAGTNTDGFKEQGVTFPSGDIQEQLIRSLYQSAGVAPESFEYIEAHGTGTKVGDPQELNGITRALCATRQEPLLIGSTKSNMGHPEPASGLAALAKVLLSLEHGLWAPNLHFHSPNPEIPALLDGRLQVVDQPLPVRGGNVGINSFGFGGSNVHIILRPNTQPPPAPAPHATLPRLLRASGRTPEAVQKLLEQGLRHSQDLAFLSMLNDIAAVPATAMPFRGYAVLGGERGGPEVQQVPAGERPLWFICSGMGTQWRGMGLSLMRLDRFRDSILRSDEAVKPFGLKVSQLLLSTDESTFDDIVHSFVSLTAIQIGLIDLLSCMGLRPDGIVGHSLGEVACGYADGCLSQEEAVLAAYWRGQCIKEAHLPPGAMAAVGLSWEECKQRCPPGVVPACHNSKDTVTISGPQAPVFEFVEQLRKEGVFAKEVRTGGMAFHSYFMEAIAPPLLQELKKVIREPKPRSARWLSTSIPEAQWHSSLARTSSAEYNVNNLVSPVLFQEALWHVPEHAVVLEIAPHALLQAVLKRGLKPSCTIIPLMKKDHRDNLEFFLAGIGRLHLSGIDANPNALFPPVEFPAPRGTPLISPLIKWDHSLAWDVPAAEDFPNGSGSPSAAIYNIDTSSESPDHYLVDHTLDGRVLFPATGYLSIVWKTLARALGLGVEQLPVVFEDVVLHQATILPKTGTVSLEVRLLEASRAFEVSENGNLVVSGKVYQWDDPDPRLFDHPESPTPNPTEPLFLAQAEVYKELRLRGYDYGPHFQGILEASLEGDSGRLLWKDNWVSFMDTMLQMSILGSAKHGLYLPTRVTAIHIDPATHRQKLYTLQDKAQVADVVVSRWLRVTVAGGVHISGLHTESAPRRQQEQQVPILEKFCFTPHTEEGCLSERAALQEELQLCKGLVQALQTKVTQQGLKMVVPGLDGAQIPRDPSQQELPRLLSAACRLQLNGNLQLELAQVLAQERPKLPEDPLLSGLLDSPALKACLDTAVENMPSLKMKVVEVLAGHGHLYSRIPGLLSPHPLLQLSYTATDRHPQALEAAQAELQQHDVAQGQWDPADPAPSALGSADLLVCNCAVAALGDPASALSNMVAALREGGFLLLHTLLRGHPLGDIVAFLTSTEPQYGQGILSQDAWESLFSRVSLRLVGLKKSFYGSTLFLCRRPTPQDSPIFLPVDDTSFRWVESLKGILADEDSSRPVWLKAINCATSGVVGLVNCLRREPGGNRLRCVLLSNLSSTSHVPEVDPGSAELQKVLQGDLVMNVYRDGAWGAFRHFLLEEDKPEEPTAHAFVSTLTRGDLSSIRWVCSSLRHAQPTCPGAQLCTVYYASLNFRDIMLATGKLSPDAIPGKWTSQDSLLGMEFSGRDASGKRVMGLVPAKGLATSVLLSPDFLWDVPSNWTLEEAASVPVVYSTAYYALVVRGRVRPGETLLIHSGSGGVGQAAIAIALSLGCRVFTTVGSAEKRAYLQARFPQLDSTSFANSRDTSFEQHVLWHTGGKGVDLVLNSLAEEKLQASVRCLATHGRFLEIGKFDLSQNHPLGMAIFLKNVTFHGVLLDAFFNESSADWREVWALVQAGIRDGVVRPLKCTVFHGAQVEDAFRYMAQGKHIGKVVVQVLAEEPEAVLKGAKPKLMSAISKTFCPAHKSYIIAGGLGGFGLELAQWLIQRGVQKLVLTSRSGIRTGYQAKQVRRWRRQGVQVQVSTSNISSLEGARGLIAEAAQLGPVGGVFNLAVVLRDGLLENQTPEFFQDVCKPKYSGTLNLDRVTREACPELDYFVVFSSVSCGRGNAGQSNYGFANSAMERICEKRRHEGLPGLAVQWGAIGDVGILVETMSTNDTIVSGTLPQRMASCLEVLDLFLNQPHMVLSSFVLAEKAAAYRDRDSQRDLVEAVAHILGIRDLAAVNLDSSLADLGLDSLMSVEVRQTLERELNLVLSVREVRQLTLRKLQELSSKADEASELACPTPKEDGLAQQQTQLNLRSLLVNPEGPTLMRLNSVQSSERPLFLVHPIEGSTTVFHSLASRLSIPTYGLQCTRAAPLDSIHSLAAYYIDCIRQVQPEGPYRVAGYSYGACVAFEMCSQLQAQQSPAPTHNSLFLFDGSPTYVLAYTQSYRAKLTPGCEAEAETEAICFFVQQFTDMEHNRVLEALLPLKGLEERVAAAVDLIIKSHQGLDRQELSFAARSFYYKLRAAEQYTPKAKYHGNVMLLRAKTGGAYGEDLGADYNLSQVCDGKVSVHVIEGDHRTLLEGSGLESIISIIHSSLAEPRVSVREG

Fatty acid synthase [12] = target: T5, Fatty acid synthase; experiment: inhibition of human FAS-TE enzyme activity – biochemical, kinetic fluorescence intensity, dose response (AID 624326); assay type: functional;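 further: rate of fluorescence rise from hydrolysis of a fluorogenic O-methyl fluorescein ester substrate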
[13] = target: Luciferin 4-monooxygenase (Photinus pyralis, UniProt P08659); experiment: inhibition of purified Photinus pyralis luciferase – biochemical, luminescence, dose response (AID 1891)
Chain of Luciferin 4-monooxygenase (P08659 whole entry): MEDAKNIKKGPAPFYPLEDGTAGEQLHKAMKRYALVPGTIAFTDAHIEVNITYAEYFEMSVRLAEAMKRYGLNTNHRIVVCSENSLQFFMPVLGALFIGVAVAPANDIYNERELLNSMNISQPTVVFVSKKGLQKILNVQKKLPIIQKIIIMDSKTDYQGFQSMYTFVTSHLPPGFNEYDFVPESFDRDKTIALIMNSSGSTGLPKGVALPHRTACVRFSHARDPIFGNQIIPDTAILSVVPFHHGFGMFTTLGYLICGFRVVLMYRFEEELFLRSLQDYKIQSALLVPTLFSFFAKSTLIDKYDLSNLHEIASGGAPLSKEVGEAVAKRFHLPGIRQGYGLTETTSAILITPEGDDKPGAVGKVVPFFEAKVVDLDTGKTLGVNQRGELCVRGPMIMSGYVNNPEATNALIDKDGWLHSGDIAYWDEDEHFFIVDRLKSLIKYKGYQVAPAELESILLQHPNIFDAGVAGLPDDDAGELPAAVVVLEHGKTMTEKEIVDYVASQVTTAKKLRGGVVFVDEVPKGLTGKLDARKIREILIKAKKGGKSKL

[14] = Luminescence Cell-Based Dose Confirmation HTS to Identify Inhibitors of Platelet Dense Granule Release. [Related pubchem assays: 1663 (Primary HTS), 1678 (Summary of Project)]; assay type: functional

Question: For `Cc1ccc(C)c2c(N)c3c(nc12)CCCCC3.O=C(O)c1cncc(Br)c1`, which EC50 [1] is on record?
Answer: 0.944 µM (active)

Question: With `COCCCN(C(=O)c1cc(-c2ccco2)nc2ccccc12)c1c(N)n(Cc2ccccc2)c(=O)[nH]c1=O` as the molecule, how does the IC50 [2] read?
Answer: 12 µM (active)

Question: With `COc1ccc2c3c1OC1C(O)C=CC4C(C2)[N+](C)(C)CCC341` (configuration not stated) as the molecule, how does the IC50 [2] read?
Answer: 7 µM (active)

Question: Which IC50 [3] does the source give for `Cc1nc2ccccc2n1CC(O)COC1CCCCC1` (configuration not stated) here?
Answer: 41.8 µM (active)

Question: And the EC50 [4]?
Answer: > 53 µM (inactive)

Question: And the IC50 [5]?
Answer: 8.02 µM (active)

Question: With `O=S(=O)(CC(CN1CCCCC1)N1CCCCC1)c1ccccc1` (configuration not stated) as the molecule, how does the CC50 (Vero) read?
Answer: 14.4 µM (active)

Question: Which EC50 [6] does the source give for `COc1cccc(NC2=NC(N)=NC3(CCCCC3)N2)c1` here?
Answer: > 50 µM (active)

Question: With `CC(C)c1ccc(N(C(=O)c2snc(C(N)=O)c2N)C(C(=O)NC2CCCC2)c2ccncc2)cc1` (configuration not stated) as the molecule, how does the EC50 (cells) read?
Answer: > 350 µM (not active)

Question: Which EC50 [7] does the source give for `Cc1nc([N+](=O)[O-])nn1C12CC3CC(CC(Br)(C3)C1)C2` here?
Answer: 0.105 µM (active)

Question: And the EC50 [8]?
Answer: > 60 µM (not active)

Question: What about the IC50 [9] of the same molecule?
Answer: 26.3 µM (active)

Question: What about the IC50 [10] of the same molecule?
Answer: 49.6 µM (active)

Question: What does the source list for `COC(=O)c1cc(OC)c(OC)cc1NC(=O)c1c(-c2ccccc2Cl)noc1C`?
Answer: IC50 [3]: < 0.368 µM (active); EC50 [4]: > 53 µM (inactive); IC50 [5]: > 20 µM (inactive)

Question: With `Cc1cccc(N2CCN(Cc3ccoc3)CC2)c1C` as the molecule, how does the EC50 [1] read?
Answer: 0.668 µM (active)

Question: For `CC(CCc1ccco1)NC(=O)c1cccc2c1C(=O)N(C1CCCCC1)C2` (configuration not stated), which IC50 [3] is on record?
Answer: < 0.368 µM (active)

Question: What about the EC50 [4] of the same molecule?
Answer: > 53 µM (inactive)

Question: And the IC50 [5]?
Answer: > 20 µM (inactive)

Question: What does the source list for `Cc1cccc(C(=O)NCCC(=O)Nc2ccc(F)c([N+](=O)[O-])c2)c1`?
Answer: EC50 [6]: > 50 µM (active); IC50 (Fatty acid synthase [11]): 12.3 µM (active); IC50 (Fatty acid synthase [12]): 9.57 µM (active)

Question: Which EC50 [6] does the source give for `C/C=C/c1ccc(OCc2cc(=O)n3cc(C)ccc3n2)c(OC)c1` here?
Answer: > 50 µM (active)

Question: And the EC50 [13]?
Answer: > 112 µM (not active)

Question: And the EC50 [14]?
Answer: 58.2 µM (active)

Question: For `CCOc1ccccc1-n1c(SCC(=O)Nc2nccs2)nnc1-c1ccoc1C`, which EC50 [1] is on record?
Answer: 1.5 µM (active)
